Results as given in patent publication US20220340566A1, “BENZYL AMINE-CONTAINING 5,6-HETEROAROMATIC COMPOUNDS USEFUL AGAINST MYCOBACTERIAL INFECTION” (priority 2019, published 2022).
Like-named read-outs stand apart in the source and are kept apart here.

Assays:
[1] = Metabolic stability test in pooled human liver microsomes; type: in vitro ADME; settings: human liver microsomes 0.5 mg protein/mL, 1 mmol/L NADPH, 37° C., 30 minutes
Procedure, shortened: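 Remaining-rate readout: parent compound left after 30 min versus 0 min (set as 100%), measured by LC/MS/MS or SPE/MS. Oxidative reaction ran at 37° C. with 1 mmol/L NADPH, 0.5 mg protein/mL pooled human microsomes, 50 mmol/L Tris-HCl pH 7.4 buffer.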

[2] = system: Mycobacterium avium ATCC700898; assay: Determination of IC85 against M. avium (resazurin fluorescence); type: cell-based; settings: 37° C., 3 days incubation then resazurin, fluorescence one day later
[3] = Mycobacterium avium, ATCC700898, M. avium ATCC700898, CAMHB medium, read-out: IC85

| SMILES | MS_h_% (remaining amount of compound after reaction, 0 minute = 100%) [1] [%] | IC85 [2, 3] [nM] | IC85 ([2]; M. avium ATCC700898, CAMHB medium) [nM] |
| --- | --- | --- | --- |
| COc1ccn2nc(C)c(C(=O)NCc3cc(F)c(N4CCC(c5ccc(OC(F)(F)F)cc5)CC4)c(F)c3)c2c1.Cl [Compound I-1-133] | 81 | 19 | – |
| Cc1ccc2nc(C)c(C(=O)NCc3ccc(N4CCN(c5ccc(OC(F)(F)F)cc5)[C@@H](C)C4)c(F)c3)n2c1 [Compound I-1-25] | 72 | 2.2 | – |
| CCc1nc2ccc(Cl)cn2c1C(=O)NCc1ccc(N2C[C@H](C)N(c3ccc(OC(F)(F)F)cc3)C[C@H]2C)c(F)c1 [Compound I-1-39] | 75 | 11 | – |
| Cc1ccn2c(C(=O)NCc3ccc(N4CC=C(c5ccc(OC(F)(F)F)cc5)CC4)c(F)c3)c(C)nc2c1.Cl [Compound I-1-61] | 95 | 200 | – |
| Cc1nc2ccc(C#N)cn2c1C(=O)NCc1ccc(N2CCN(c3ccc(OC(F)(F)F)cc3)[C@@H](C)C2)c(F)c1.Cl [Compound I-1-50] | 94 | 500 | – |
| CCc1nc2ccc(Cl)cn2c1C(=O)NCc1ccc(-c2ccc(OC(F)(F)F)cc2)nc1 [Compound I-3-18] | 80.9 | 190 | – |
| Cc1nc2cc(Cl)ccn2c1C(=O)NCc1ccc(N2CCC(c3ccc(OC(F)(F)F)cc3)CC2)c(F)c1.Cl [Compound I-1-69] | 89 | 510 | – |
| CCOc1ccc(N2CCC(c3ccc(CNC(=O)c4c(CC)nc5ccc(Cl)cn45)cc3F)CC2)cc1.Cl [Compound I-1-73] | 90 | 19 | – |
| CCc1nc2cc(F)ccn2c1C(=O)NCc1ccc(C2CCN(c3ccc(C(F)(F)F)cc3)CC2)cc1F.Cl [Compound I-1-150] | 65 | 2.4 | – |
| Cc1ccn2c(C(=O)NCc3ccc(C4CCN(C5CN(CC(F)(F)F)C5)CC4)c(F)c3)c(C)nc2c1 [Compound I-3-34] | 71.9 | 610 | – |
| CCc1nc2ccc(Cl)cn2c1C(=O)NCc1ccc(N2CCN(c3ccc(OCC4CC4)cc3)[C@@H](C)C2)c(F)c1.Cl [Compound I-1-54] | 79 | 34 | – |
| CC[C@H]1CN(c2ccc(CNC(=O)c3c(C)nn4ccc(OC)cc34)cc2F)CCN1c1ccc(OC(F)(F)F)cc1.Cl [Compound I-2-9] | 73.5 | 19 | – |
| Cc1ccn2c(C(=O)NCc3cc(F)c(N4CCC(c5ccc(OC(F)(F)F)cc5)CC4)c(F)c3)c(C)nc2c1.Cl [Compound I-1-67] | 93 | 68 | – |
| CCc1nc2ccc(Cl)cn2c1C(=O)NCc1cc(F)c(N2CCN(c3ccc(OC(F)(F)F)cc3)[C@@H](C)C2)cc1F.Cl [Compound I-1-94] | 67 | 14 | – |
| CCc1nc2ccc(Cl)cn2c1C(=O)NCc1ccc(N2CCN(c3ccc(OC(F)(F)F)cc3)C(C)(C)C2)c(F)c1 [Compound I-1-32] | 62 | 9.1 | – |
| CCc1nc2cc(F)ccn2c1C(=O)NCc1ccc(N2CCC(c3ccc(OC(F)(F)F)cc3)CC2)c(Cl)c1.Cl [Compound I-1-127] | 93 | 7.7 | – |
| CCc1nc2cc(F)ccn2c1C(=O)NCc1ccc(N2CCN(c3ccc(OC(F)(F)F)c(F)c3)[C@@H](C)C2)c(F)c1.Cl [Compound I-1-117] | 83 | 2.5 | – |
| Cc1nc2ccc(Cl)cn2c1C(=O)NCc1ccc(N2CCC(c3ccc(OC(F)(F)F)cc3)CC2)cc1 [Compound I-3-27] | 75.5 | 12 | – |
| CCc1nc2cc(F)ccn2c1C(=O)NCc1ccc(N2CCN(c3ccc(OC(F)(F)F)cc3)[C@@H](C)C2)c(F)c1 [Compound I-1-38] | 90 | 1.3 | – |
| O=C(NCc1ccc(C2CCN(c3ccc(OC(F)(F)F)cc3)CC2)c(F)c1)c1c(C(F)(F)F)nc2ccc(Cl)cn12 [Compound I-1-17] | 63 | – | 13 |

| SMILES | MS_h_% (remaining amount of compound after reaction, 0 minute = 100%) [1] [%] | IC85 [2, 3] [nM] | IC85 ([2]; M. avium ATCC700898, CAMHB medium) [nM] |
| --- | --- | --- | --- |
| Cc1cc2nc(C)c(C(=O)NCc3ccc(C4CCN(c5ccc(OC(F)(F)F)cc5)CC4)c(F)c3)n2cc1Cl [Compound I-1-13] | 82 | 57 | – |
| Cc1ccn2nc(C(F)(F)F)c(C(=O)NCc3ccc(N4CCN(c5ccc(OC(F)(F)F)cc5)[C@@H](C)C4)c(F)c3)c2c1.Cl [Compound I-1-126] | 77 | 270 | – |
| CCc1nc2cc(C)c(F)cn2c1C(=O)NCc1ccc(N2CCN(c3ccc(OC(F)(F)F)cc3)[C@@H](C)C2)c(F)c1 [Compound I-1-49] | 59 | 68 | – |
| Cc1nc2ccc(F)cn2c1C(=O)NCc1ccc(N2CCN(c3ccc(OC(F)(F)F)cc3)[C@@H](C)C2)cc1 [Compound I-3-23] | 77.8 | 15 | – |
| Cc1ccn2c(C(=O)NCc3ccc(N4CCC(c5ccc(OC(F)(F)F)cc5)CC4)c(F)c3)c(C)nc2c1.Cl [Compound I-1-65] | 96 | 120 | – |
| Cc1cn2c(C(=O)NCc3ccc(N4CCN(c5ccc(OC(F)(F)F)cc5)[C@@H](C)C4)c(F)c3)c(C)nc2s1 [Compound I-3-32] | 72.6 | 820 | – |
| Cc1ccn2c(C(=O)NCc3ccc(C4CCN(c5ccc(OC(F)(F)F)cn5)CC4)c(C)c3)c(C)nc2c1 [Compound I-1-7] | 87 | 170 | – |
| COc1ccn2nc(C)c(C(=O)NCc3ccc(N4CCN(c5ccc(OC(F)(F)F)cc5)[C@@H](C)C4)c(Cl)c3)c2c1.Cl [Compound I-1-132] | 62 | 14 | – |
| CCc1nc2ccc(Cl)cn2c1C(=O)NCc1ccc(N2CCC(c3ccc(OC(F)(F)F)cc3)CC2)c(Cl)c1.Cl [Compound I-1-80] | 74 | 60 | – |
| Cc1nc2ccc(Cl)cn2c1C(=O)NCc1ccc(N2CCN(c3ccc(OC(F)(F)F)cc3)C[C@H]2C)c(F)c1 [Compound I-1-37] | 76 | 36 | – |
| Cc1ccn2c(C(=O)NCc3ccc(C4CCN(c5ccc(OC(F)(F)F)cc5F)CC4)c(F)c3)c(C)nc2c1 [Compound I-1-22] | 87 | 28 | – |
| [2H]c1c(C([2H])([2H])[2H])c([2H])c2nc(C)c(C(=O)NCc3ccc(C4CCN(c5ccc(OC(F)(F)F)cc5)CC4)c(F)c3)n2c1[2H] [Compound I-3-5] | 93.7 | 21 | – |
| CCc1nc2ccc(Cl)cn2c1C(=O)NCc1ccc(C2CCN(c3ccc(OC(F)(F)F)cc3)[C@@H](C)C2)c(F)c1.Cl (some centres unmarked) [Compound I-1-106] | 59 | 6.2 | – |
| Cc1nc2ccc(Cl)cn2c1C(=O)NCc1cc(F)c2c(c1)CCN(C1CC=C(OC(F)(F)F)CC1)C2.Cl (centres unmarked) [Compound I-3-24] | 77.5 | 130 | – |
| CCc1nc2cc(Cl)ccn2c1C(=O)NCc1ccc(N2CCN(c3ccc(OC(F)(F)F)cc3)[C@H](C)C2)c(F)c1.Cl [Compound I-1-83] | 85 | 620 | – |
| Cc1cn2c(C(=O)NCc3cc(F)c(N4CCC(c5ccc(OC(F)(F)F)cc5)CC4)c(F)c3)c(C)nc2s1.Cl [Compound I-3-16] | 81.4 | 110 | – |
| CCc1nc2cc(F)ccn2c1C(=O)NCc1ccc(N2CCN(c3ccc(OC(F)(F)C(F)(F)F)cc3)[C@@H](C)C2)c(F)c1.Cl [Compound I-1-121] | 95 | 3 | – |
| Cc1ccn2c(C(=O)NCc3ccc(N4CCN(c5ccc(OC(F)(F)F)cc5)[C@@H](C)C4)c(F)c3)c(C(F)(F)F)nc2c1 [Compound I-1-23] | 85 | 45 | – |
| Cc1ccc2nc(C)c(C(=O)NCc3ccc(Oc4cccc(C(F)(F)F)c4)cc3)n2c1 [Compound I-3-21] | 79.1 | 130 | – |
| CCc1nc2cc(F)ccn2c1C(=O)NCc1ccc(N2CCN(c3ccc(OC(F)(F)F)cc3)[C@@H](C)C2)c(F)c1F.Cl [Compound I-1-96] | 90 | 11 | – |
